Source: patent publication US20050277663A1, “3-Aryl-3-hydroxy-and 3-aryl-3-oxopropionic acid esters as fungicides” (priority 2004, published 2005)

How the values were obtained:
[1] = system: Alternaria solani on tomato plants; experiment: Alternaria greenhouse study on tomato plants; conditions: for control of A. solani (in words): 75 ppm rate; for Average Lesion Size: 6 days after infection
Procedure: Tomato plants were inoculated with a conidial suspension (8,000 conidia/ml) of A. solani and maintained in a dew chamber for 24 hours. The plants were subsequently moved to the greenhouse for disease development.

[2] = system: Erysiphe graminis on barley plants; experiment: Erysiphe greenhouse study on barley plants; conditions: for Average Lesion Number: 5 days after infection
Stagnospora nodorum = experiment: Microtiter plate fungicidal screening (agar, spore inoculation); assay type: cell-based; conditions: fungal growth after 3-5 days at 20° C., C.V. class in parentheses; for IC50: Parastagonospora nodorum, read-out: IC50 S. nodorum
Phytophthora infestans = experiment: microbe, parasite or virus in culture; assay type: cell-based; conditions: for IC50: Phytophthora infestans, read-out: IC50 P. infestans
Botrytis cinerea = experiment: Microtiter plate fungicidal screening (agar, spore inoculation); assay type: cell-based; conditions: fungal growth after 3-5 days at 20° C., C.V. class in parentheses, read-out: IC50 B. cinerea
U. maydis = experiment: as above; assay type: cell-based, Ustilago maydis; conditions: Mycosarcoma maydis; fungal growth after 3-5 days at 20° C.; C.V. class in parentheses
Septoria tritici = experiment: as above; assay type: cell-based; conditions: fungal growth after 3-5 days at 20° C., C.V. class in parentheses

For `CO/C=C(/C(=O)OC)c1ccccc1Oc1cc(Oc2ccccc2C#N)ncn1` [Azoxystrobin, azoxystrobin], the “control of A. solani (in words)” value [1] was “slightly less control”, the “Average Lesion Size” value ([1]; 75 ppm) was “A (A = 0-10)” and the “control of A. solani” value ([1]; 300 ppm rate) was about 100%. The “Average Lesion Size” value ([1]; 300 ppm) was “A (A = 0-10)”.

`N#Cc1c(Cl)c(Cl)c(Cl)c(C#N)c1Cl` [Chlorothalonil, chlorothalonil] was tested, and the “control of E. graminis (in words)” value ([2]; high rate) was “marginal level of control”, the “Average Lesion Number” value ([2]; inoculated data set, 1250 ppm) was “B (B = 51-100)” and the “Average Lesion Number” value ([2]; inoculated data set, 5000 ppm) was “D (D = +150)”. The “Average Lesion Number” value ([2]; uninoculated data set, 1250 ppm) was “B (B = 11-20)”, the “Average Lesion Number” value ([2]; uninoculated data set, 5000 ppm) was “C (C = 21-30)” and the “Average Lesion Size” value ([1]; 1250 ppm) was “A (A = 0-10)”. For the same compound, the “Average Lesion Size” value ([1]; 5000 ppm) was “A (A = 0-10)”.

In the case of `O=C(OCc1cccc(C(F)(F)F)c1)C(CSc1nccs1)C(O)c1cccnc1` (stereo not drawn) [Compound 5, 3-(Trifluoromethyl)phenylmethyl β-hydroxy-α-(2-thiazolylthiomethyl)-3-pyridinepropanoate], the IC50 (Stagnospora nodorum) is reported as under 5 µM, the IC50 (Phytophthora infestans) is reported as over 25 µM and the IC50 (Botrytis cinerea) is reported as over 25 µM. The IC50 (U. maydis) was over 25 µM and the “IC50 S. tritici” value (Septoria tritici) was “A (d)”.

With `O=C(OCc1cccc(C(F)(F)F)c1)[C@H](c1ccccc1)[C@@H](O)c1cccnc1` [Compound 15, 3-(Trifluoromethyl)phenylmethyl syn-β-hydroxy-α-phenyl-3-pyridinepropanoate] the “IC50 S. nodorum” value (Stagnospora nodorum) was “A (d)”, the IC50 (Phytophthora infestans) was over 25 µM and the IC50 (U. maydis) was over 25 µM. For the same compound, the “IC50 S. tritici” value (Septoria tritici) was “A (d)”.

`O=C(OCc1ccc(Cl)c(Cl)c1)C(CSc1nc2cccnc2s1)C(O)c1cccnc1` (stereo not drawn) [Compound 16, 3,4-Dichlorophenylmethyl β-hydroxy-α-{2-(thiazolo[5,4-b]pyridine)thiomethyl}-3-pyridinepropanoate] was tested, and the “IC50 S. nodorum” value (Stagnospora nodorum) was “A (b)”, the IC50 (Phytophthora infestans) was over 25 µM and the IC50 (U. maydis) was over 25 µM. For the same compound, the “IC50 S. tritici” value (Septoria tritici) was “A (c)”.

In the case of `O=C(OCc1cccc(C(F)(F)F)c1)C(Cc1ccco1)C(O)c1cccnc1` (stereo not drawn) [Compound 20, 3-(Trifluoromethyl)phenylmethyl β-hydroxy-α-2-furylmethyl-3-pyridinepropanoate], the “IC50 S. nodorum” value (Stagnospora nodorum) is reported as “A (b)”, the IC50 (Phytophthora infestans) is reported as over 25 µM and the IC50 (Botrytis cinerea) is reported as over 25 µM. It also gave an IC50 (U. maydis) of over 25 µM and an IC50 (Septoria tritici; Zymoseptoria tritici, read-out: IC50 S. tritici) of under 5 µM.

In the case of `O=C(OCc1cccc(C(F)(F)F)c1)C(c1ccccc1Cl)C(O)c1cccnc1` (stereo not drawn) [Compound 21, 3-(Trifluoromethyl)phenylmethyl β-hydroxy-α-2-chlorophenyl-3-pyridinepropanoate], the “activity against E. graminis (in words)” value ([2]; both rates (300 and 75 ppm), both uninoculated and inoculated tests) is reported as “excellent activity”, the “Average Lesion Number” value ([2]; inoculated data set, 75 ppm) is reported as “A (A = 0-50)” and the “Average Lesion Number” value ([2]; inoculated data set, 300 ppm) is reported as “A (A = 0-50)”. The “Average Lesion Number” value ([2]; uninoculated data set, 75 ppm) was “A (A = 0-10)”, the “Average Lesion Number” value ([2]; uninoculated data set, 300 ppm) was “A (A = 0-10)” and the “IC50 S. nodorum” value (Stagnospora nodorum) was “A (c)”. The IC50 (Phytophthora infestans) was over 25 µM, the IC50 (Botrytis cinerea) was over 25 µM and the IC50 (U. maydis) was over 25 µM. The “IC50 S. tritici” value (Septoria tritici) was “A (c)”, the “control of A. solani (in words)” value [1] was “no control” and the “Average Lesion Size” value ([1]; 75 ppm) was “D (D = +30)”. For the same compound, the “Average Lesion Size” value ([1]; 300 ppm) was “C (C = 21-30)” and the “decrease in lesion counts” value ([1]; high rate (300 ppm), activity was not significant) was “roughly 50%”.

With `CC(C(=O)Oc1ccc(Cl)c(Cl)c1)C(O)c1cccnc1` (stereo not drawn) [Compound 29, 3,4-Dichlorophenyl β-hydroxy-α-methyl-3-pyridinepropanoate] the IC50 (Stagnospora nodorum) was 16 to 25 µM, the “IC50 P. infestans” value (Phytophthora infestans; fungal growth after 3-5 days at 20° C., C.V. class in parentheses) was “D (d)” and the IC50 (Botrytis cinerea) was over 25 µM. For the same compound, the IC50 (U. maydis) was 16 to 25 µM and the “IC50 S. tritici” value (Septoria tritici) was “A (b)”.

With `CCCC1COC(Cn2cncn2)(c2ccc(Cl)cc2Cl)O1` (centres unmarked) [Propiconazole, propiconazole] the “control of E. graminis” value ([2]; high (75 ppm) rate) was about 100%, the “Average Lesion Number” value ([2]; inoculated data set, 4.7 ppm) was “A (A = 0-50)” and the “Average Lesion Number” value ([2]; inoculated data set, 18.8 ppm) was “A (A = 0-50)”. The “Average Lesion Number” value ([2]; inoculated data set, 75 ppm) was “A (A = 0-50)”, the “control of E. graminis (in words)” value ([2]; lower rates (19 and 5 ppm)) was “excellent control” and the “Average Lesion Number” value ([2]; uninoculated data set, 5 ppm) was “A (A = 0-10)”. For the same compound, the “Average Lesion Number” value ([2]; uninoculated data set, 19 ppm) was “A (A = 0-10)” and the “Average Lesion Number” value ([2]; uninoculated data set, 75 ppm) was “A (A = 0-10)”.
